US20090214426A1, “Assay Method” (priority 2004, published 2009)
“Also recorded” adds a separate entry of the source.

Key:
CCI rats [1] = experiment: Open field test in CCI rats; type: in vivo, rat; conditions: for reversal of pain-related anxiety-like behaviour of CCI rats: summary statement, dose not stated
Experimental: (§1) The CCI of sciatic nerve is performed as previously described by Bennett and Xie (1988). Animals are anaesthetized with a 2% isofluorane/O2 mixture maintained during surgery via a nose cone and the common sciatic nerve is exposed at the middle of the right thigh by blunt dissection through biceps femoris. Proximal to the sciatic trifurcation, about 7 mm of nerve is freed of adhering tissue and 4 ligatures (4-0 silk) are tied loosely around it with about 1 mm spacing. Ligatures are tied such that the circulation through the superficial epineural vasculature is retarded but not arrested. The incision is then closed in layers and the wound treated with topical antibiotics. In the sham-operated group an identical dissection is performed on the ipsilateral paw except the sciatic nerve is not ligated.
(§2) The spontaneous locomotor activity of rats in an open field is monitored for 30 minutes in a 70×70 cm dark arena (Prut ans Beizung, 2003, Eur J Pharmacol. 463:3-33). Each animal was placed in the centre of the arena and a video camera recorded movement of the animal. Four rats are recorded simultaneously in four different cages. Data are collected and analysed by Ethovision 3.0 software (Noldus IT, Netherdland) and the exploratory behaviour is expressed as number of entries in the central area of the arena (23×23 cm).
To measure the anxiety-like behaviour in CCI rats the open field test is carried out in normal light conditions (100 Lux).
For a pharmacological validation of the model, CCI rats with a poor exploratory activity (entries≦6) are pre selected in the open field and a week later treated with diazepam (1 and 3 mg/kg, i.p.), tramadol (30 mpk, p.o.) or gabapentin (30-100 mg/kg, p.o.). Naïve CD vehicle-treated rats are used as positive control.

CCI rats [2] = experiment: Beam walking test in CCI rats; type: in vivo, rat; conditions: for efficacy on reversing beam walking impairments: summary statement, dose not stated
Experimental: as §1
The Beam walking apparatus consists of a 1.5 m long beam with a 2.5×2.5 cm square cross section, elevated 75 cm above the floor. The test is performed in dim light conditions (18 lux). A light source (520 lux) is placed at the start-end of the beam while a dark box at the other side (Goldstein & Davis, 1990, J Neurosci Methods; 31:101-107). Rats are trained over a period of 2 days to cross the beam. On the day of the test an additional training section is performed before the proper test trial was performed. […] Rats that cross the beam without using the ipsilateral paw are given a maximal number of foot slips.
Starting from 3 weeks post surgery, CCI rats are selected based on their performances. Only those showing a number of foot slips of 2 or above are selected and used for the pharmacological validation of the test. A group of naïve CD rats are treated with vehicle and used as positive controls. […]

CD naïve rat = experiment: Open field test in naïve rats (anxiogenic validation); type: in vivo
Experimental: as §2
To measure the anxiety-like behaviour in CCI rats the open field test is carried out in normal light conditions (100 Lux). […] To confirm that the environmental conditions we set up, could let us measure an anxiety-like behaviour, the activity of the anxiogenic compound mCPP was tested in CD naïve rat.

fibromyalgia patients = conditions: randomised controlled clinical trials (Mease 2003); cited from earlier work
[3] = tested on: patients with diabetic neuropathy and post herpetic neuralgia; conditions: randomised controlled clinical trials (Backonja 1998; Rowbotham 1998); cited from earlier work
CCI rats [4] = experiment: Rota rod test in CCI rats; type: in vivo, rat; conditions: analgesic doses; selected rats with mean performance <80 seconds; data not shown
Experimental: as §1
The rota rod test consists of 4 rotatable drums divided by flanges with a motor-driven drum which is capable of acceleration (Ugo Basile, Comerio, VA, Italy). For a given trial, a rat is placed on the rotating rod and the rotation speed is accelerated from 4 to 16 revolutions per minute (rpm) in 2 minutes. The time of maximal performance is set at 120 seconds (Voikar V et al, 2001, Physiol Behav., 2001; 72:271-81). […]

CCI rats [5] = experiment: Object recognition test in CCI rats; type: in vivo, rat; conditions: tramadol 100 mg/kg po, 3.5 hours post familiarization, tested 30 minutes later
Experimental: as §1
The Object Recognition test was performed as described by Ennaceur and Delacour (1988). The apparatus consisted of a black circular arena 55 cm in diameter with 50 cm black walls. […]
Each animal was trained prior to testing; this involved handling and habituation of the rat to the arena for 5 minutes per session, twice a day for three consecutive days. […] The distance moved in the arena and the time spent exploring each object during familiarization and sample phases were recorded manually and automatically, respectively by the videotracking system (Noldus Ethovision 3.0, Netherland). […]

CN1C(=O)CN=C(c2ccccc2)c2cc(Cl)ccc21 [Diazepam]
pain-related anxiety-like behaviour of CCI rats (entries in centre) (CCI rats [1]; diazepam 1 mg/kg IP, 30 minutes before the test (FIG. 5A)): did not | pain-related anxiety-like behaviour of CCI rats (entries in centre) (CCI rats [1]; diazepam 3 mg/kg (higher dose, data not shown)): did not | reversal of pain-related anxiety-like behaviour of CCI rats (CCI rats [1]): does not reverse

CN(C)CCC=C1c2ccccc2CCc2ccccc21 [Amitriptyline]
neuropathic rats performance in the beam walking task (CCI rats [2]; amitriptyline 2 mg/kg (FIG. 2C)): did not improve | neuropathic rats performance in the beam walking task (CCI rats [2]; amitriptyline 20 mg/kg (data not shown)): did not improve | efficacy on reversing beam walking impairments (CCI rats [2]): does not

Clc1cccc(N2CCNCC2)c1 [mCPP]
exploratory activity (number of entries) (CD naïve rat; mCPP 1-3 mg/kg i.p.): dose-dependent decrease | number of entries in the centre of the arena (CD naïve rat; mCPP higher dose (3 mg/kg) i.p., vs 13±3 vehicle-treated): 5±2 | rats that explored the centre less than 6 times (CD naïve rat; mCPP, compared to 16% in the control group): Seventy-five

CC(C)C[C@H](CN)CC(=O)O [Pregabalin]
QoL deficit of fibromyalgia patients (fibromyalgia patients): showed efficacy

NCC1(CC(=O)O)CCCCC1 [gabapentin]
QoL of patients [3]: demonstrated an improvement | number of entries in the centre of the open field compared to CCI vehicle-treated group (CCI rats [1]; gabapentin 30 mg/kg p.o.): increased | anxiety-like behaviour of injured rats (CCI rats [1]; gabapentin 100 mg/kg p.o.): completely reversed | number of entries in the centre of the open field (CCI rats [1]; gabapentin 100 mg/kg p.o., 1 hour before the test, vs 14±2 naïve vehicle-treated group, NS): 12±2 | exploratory activity of neuropathic rats (CCI rats [1]; gabapentin 30-100 mg/kg p.o.): improved | reversal of pain-related anxiety-like behaviour of CCI rats (CCI rats [1]): does

CN1CC[C@]23c4c5ccc(O)c4O[C@H]2[C@@H](O)C=C[C@H]3[C@H]1C5 [Morphine]
rota rod performance of neuropathic rats (CCI rats [4]): did not improve; also recorded: did not showed improvement | rats performance in the beam walking test (CCI rats [2]; morphine 1 mg/kg s.c. (lower dose)): not statistically different from the control value | number of foot slips (CCI rats [2]; morphine 3 mg/kg s.c. (higher dose), 30 minutes post dosing, vs 6±1 baseline, p<0.05): 3±1 | number of foot slips (CCI rats [2]; morphine 3 mg/kg s.c. (higher dose), 1 hour post dosing, vs 5±1 baseline, p<0.05): 2±1 | efficacy on reversing beam walking impairments (CCI rats [2]): show efficacy

COc1cccc(C2(O)CCCCC2CN(C)C)c1 (stereo not shown) [Tramadol]
cognitive dysfunction (memory/attention deficit) of neuropathic rats (CCI rats [5]): reversed | discrimination index compared to vehicle-treated CCI rats (CCI rats [5]; P<0.01): significant increase | rota rod performance of neuropathic rats (CCI rats [4]): did not improve; also recorded: did not showed improvement | efficacy on reversing beam walking impairments (CCI rats [2]): show efficacy | performance of rats in the beam walking test (CCI rats [2]; tramadol 30 mg/kg p.o.): not significantly different from CCI controls | number of foot slips (CCI rats [2]; tramadol 100 mg/kg p.o. (higher dose), 1 hour post drug administration, vs 6±1 CCI vehicle-treated group, p<0.01): 1±1 | ability of CCI rats to cross the beam (CCI rats [2]; tramadol 30-100 mg/kg p.o.): dose dependently improves | reversal of pain-related anxiety-like behaviour of CCI rats (CCI rats [1]): does not reverse | pain-related anxiety-like behaviour of CCI rats (entries in centre) (CCI rats [1]; tramadol 30 mg/kg PO, 30 minutes before the test (FIG. 5A)): did not | pain-related anxiety-like behaviour of CCI rats (entries in centre) (CCI rats [1]; tramadol 100 mg/kg (higher dose, data not shown)): did not
